Reference: patent US10280170B2, “Substituted 4,5,6,7-tetrahydro-pyrazolo[1,5-a]pyrazine derivatives and 5,6,7,8-tetrahydro-4H-pyrazolo[1,5-a][1,4]diazepine derivatives as Ros1 inhibitors” (Janssen Pharmaceutica NV, priority 2014, dated 2019)
Where two headings read alike, the source gives them in different places.

How the values were obtained:
[1] = target: Ba/F3 cells containing Ros1 with a mutation at the gatekeeper residue (L2026M) (Homo sapiens, UniProt P08922, L2026M, cells depend on it, form not given); assay: Ba/F3-Ros1 cell proliferation assay, L2026M gatekeeper mutant; assay type: cell-based, murine; settings: without IL-3
Sequence of Ba/F3 cells containing Ros1 with a mutation at the gatekeeper residue (L2026M) (P08922 whole entry L2026M, form open): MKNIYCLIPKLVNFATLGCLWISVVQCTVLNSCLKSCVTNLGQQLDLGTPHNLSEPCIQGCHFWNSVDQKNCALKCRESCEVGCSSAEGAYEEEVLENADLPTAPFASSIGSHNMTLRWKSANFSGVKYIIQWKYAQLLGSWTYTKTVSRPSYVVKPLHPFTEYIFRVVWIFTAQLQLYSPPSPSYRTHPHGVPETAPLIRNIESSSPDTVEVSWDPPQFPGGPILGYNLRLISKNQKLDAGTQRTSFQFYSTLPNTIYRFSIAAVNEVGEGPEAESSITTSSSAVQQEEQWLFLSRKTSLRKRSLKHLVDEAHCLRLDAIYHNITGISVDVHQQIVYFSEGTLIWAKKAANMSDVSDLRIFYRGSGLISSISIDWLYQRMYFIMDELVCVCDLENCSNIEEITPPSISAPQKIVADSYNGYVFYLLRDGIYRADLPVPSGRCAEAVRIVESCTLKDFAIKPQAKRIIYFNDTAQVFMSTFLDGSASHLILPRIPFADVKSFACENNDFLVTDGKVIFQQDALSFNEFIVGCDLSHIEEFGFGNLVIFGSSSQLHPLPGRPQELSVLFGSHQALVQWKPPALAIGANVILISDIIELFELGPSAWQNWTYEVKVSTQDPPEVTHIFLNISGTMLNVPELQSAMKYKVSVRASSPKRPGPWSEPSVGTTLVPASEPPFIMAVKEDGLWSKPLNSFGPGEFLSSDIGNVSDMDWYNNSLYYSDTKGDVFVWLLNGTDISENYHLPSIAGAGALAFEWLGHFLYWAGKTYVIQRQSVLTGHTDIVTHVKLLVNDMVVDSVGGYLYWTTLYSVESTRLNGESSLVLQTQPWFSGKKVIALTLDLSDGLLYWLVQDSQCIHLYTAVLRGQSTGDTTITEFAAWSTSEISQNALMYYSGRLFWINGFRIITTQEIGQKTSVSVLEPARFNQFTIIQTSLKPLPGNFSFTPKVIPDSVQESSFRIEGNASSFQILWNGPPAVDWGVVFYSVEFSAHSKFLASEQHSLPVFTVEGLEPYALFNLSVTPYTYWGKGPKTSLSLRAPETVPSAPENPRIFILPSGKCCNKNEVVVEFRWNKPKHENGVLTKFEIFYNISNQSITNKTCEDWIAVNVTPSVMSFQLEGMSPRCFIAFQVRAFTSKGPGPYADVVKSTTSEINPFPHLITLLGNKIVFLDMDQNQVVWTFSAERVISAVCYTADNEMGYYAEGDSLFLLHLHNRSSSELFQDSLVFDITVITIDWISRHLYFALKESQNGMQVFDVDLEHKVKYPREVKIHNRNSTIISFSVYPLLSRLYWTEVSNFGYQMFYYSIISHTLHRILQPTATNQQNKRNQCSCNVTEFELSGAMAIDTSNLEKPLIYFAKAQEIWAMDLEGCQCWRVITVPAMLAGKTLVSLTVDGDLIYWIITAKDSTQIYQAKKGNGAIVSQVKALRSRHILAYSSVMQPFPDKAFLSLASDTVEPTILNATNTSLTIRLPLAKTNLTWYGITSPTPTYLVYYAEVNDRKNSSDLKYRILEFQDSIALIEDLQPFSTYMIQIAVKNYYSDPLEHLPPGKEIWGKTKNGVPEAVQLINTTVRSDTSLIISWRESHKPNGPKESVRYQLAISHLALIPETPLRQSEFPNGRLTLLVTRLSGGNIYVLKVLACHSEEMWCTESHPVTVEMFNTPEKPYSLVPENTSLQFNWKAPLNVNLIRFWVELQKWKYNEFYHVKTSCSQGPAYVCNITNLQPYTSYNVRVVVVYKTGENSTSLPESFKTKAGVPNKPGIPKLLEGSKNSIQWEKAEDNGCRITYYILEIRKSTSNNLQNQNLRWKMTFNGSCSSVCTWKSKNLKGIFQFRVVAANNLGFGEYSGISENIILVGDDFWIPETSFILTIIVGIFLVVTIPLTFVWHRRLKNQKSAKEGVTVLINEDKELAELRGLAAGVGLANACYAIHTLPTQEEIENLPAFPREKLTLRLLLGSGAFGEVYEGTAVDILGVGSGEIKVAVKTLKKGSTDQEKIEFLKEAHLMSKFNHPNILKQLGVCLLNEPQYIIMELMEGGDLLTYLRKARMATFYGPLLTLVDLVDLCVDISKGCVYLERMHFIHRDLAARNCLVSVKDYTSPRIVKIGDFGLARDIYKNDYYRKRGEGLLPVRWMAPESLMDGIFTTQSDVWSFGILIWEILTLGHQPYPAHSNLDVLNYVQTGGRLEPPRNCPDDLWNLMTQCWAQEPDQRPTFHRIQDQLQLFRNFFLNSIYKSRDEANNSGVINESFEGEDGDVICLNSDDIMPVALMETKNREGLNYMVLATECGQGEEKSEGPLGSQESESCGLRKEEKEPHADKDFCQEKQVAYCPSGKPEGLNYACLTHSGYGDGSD
Method: (§1) Ba/F3-Ros1 Cell Proliferation Assay
(§2) This assay was carried out with Ba/F3 cells containing three different versions of Ros1: the wild-type protein, protein with a mutation at the gatekeeper residue (L2026M), and protein with a mutation identified in a tumor from a patient that became resistant to crizotinib (Xalkori®) treatment (G2032R). Compounds were solubilized in 100% DMSO (dimethyl sulfoxide) and sprayed into polystyrene, tissue culture treated 384-well plates. A 50 μl volume of cell culture medium (phenol red free RPMI-1640, 10% FBS (fetal bovine serum), 2 mM L-Glutamine) containing 20000 Ba/F3-Ros1 cells was added to each well and the plates were placed in an incubator at 37° C. and 5% CO2. After 24 hours, 10 μl of Alamar Blue solution (0.5 mM K3Fe(CN)6, 0.5 mM K4Fe(CN)6, 0.15 mM Resazurin and 100 mM Phosphate Buffer) was added to the wells, incubated for 4 hours at 37° C. and 5% CO2 before RFU's (Relative Fluorescence Units) (ex. 540 nm., em. 590 nm.) were measured in a fluorescence plate reader.

[2] = target: T1, Ba/F3 cells containing Ros1 wild-type protein (Homo sapiens, UniProt P08922, cells depend on it, form not given); assay: Ba/F3-Ros1 cell proliferation assay, wild-type Ros1; assay type: cell-based, murine; settings: without IL-3
T1 construct: The background only speaks of 'a number of different unrelated proteins' and names SLC34A2-ROS1 for HCC78 cells
T1 sequence (P08922 whole entry, stated change not applied): as the sequence (P08922 whole entry L2026M, form open) above, with M2026L counted along it
Method: as §1, §2

[3] = test system: Ba/F3 cells containing Ros1 wild-type protein + IL-3; assay: Ba/F3-Ros1 cell proliferation counter-screen, wild-type protein in the presence of 10 ng/ml murine IL-3; assay type: cell-based; settings: Mus musculus, BaF3, 24 h, read-out: BaF3-ROS1 + IL3 pIC50 (converted)
Method: as §2
As a counter-screen the same experiment was performed for the wild-type protein in the presence of 10 ng/ml murine IL-3.

Ros1 enzyme = target: T2, Ros1 enzyme (Homo sapiens, UniProt P08922); assay: Ros1 enzymatic assay; assay type: biochemical; settings: Ros1 enzymatic assay; read-out: ROS1 pIC50 (converted)
T2 construct: 0.5 μg/ml Ros1 enzyme
T2 sequence (P08922 28-2347): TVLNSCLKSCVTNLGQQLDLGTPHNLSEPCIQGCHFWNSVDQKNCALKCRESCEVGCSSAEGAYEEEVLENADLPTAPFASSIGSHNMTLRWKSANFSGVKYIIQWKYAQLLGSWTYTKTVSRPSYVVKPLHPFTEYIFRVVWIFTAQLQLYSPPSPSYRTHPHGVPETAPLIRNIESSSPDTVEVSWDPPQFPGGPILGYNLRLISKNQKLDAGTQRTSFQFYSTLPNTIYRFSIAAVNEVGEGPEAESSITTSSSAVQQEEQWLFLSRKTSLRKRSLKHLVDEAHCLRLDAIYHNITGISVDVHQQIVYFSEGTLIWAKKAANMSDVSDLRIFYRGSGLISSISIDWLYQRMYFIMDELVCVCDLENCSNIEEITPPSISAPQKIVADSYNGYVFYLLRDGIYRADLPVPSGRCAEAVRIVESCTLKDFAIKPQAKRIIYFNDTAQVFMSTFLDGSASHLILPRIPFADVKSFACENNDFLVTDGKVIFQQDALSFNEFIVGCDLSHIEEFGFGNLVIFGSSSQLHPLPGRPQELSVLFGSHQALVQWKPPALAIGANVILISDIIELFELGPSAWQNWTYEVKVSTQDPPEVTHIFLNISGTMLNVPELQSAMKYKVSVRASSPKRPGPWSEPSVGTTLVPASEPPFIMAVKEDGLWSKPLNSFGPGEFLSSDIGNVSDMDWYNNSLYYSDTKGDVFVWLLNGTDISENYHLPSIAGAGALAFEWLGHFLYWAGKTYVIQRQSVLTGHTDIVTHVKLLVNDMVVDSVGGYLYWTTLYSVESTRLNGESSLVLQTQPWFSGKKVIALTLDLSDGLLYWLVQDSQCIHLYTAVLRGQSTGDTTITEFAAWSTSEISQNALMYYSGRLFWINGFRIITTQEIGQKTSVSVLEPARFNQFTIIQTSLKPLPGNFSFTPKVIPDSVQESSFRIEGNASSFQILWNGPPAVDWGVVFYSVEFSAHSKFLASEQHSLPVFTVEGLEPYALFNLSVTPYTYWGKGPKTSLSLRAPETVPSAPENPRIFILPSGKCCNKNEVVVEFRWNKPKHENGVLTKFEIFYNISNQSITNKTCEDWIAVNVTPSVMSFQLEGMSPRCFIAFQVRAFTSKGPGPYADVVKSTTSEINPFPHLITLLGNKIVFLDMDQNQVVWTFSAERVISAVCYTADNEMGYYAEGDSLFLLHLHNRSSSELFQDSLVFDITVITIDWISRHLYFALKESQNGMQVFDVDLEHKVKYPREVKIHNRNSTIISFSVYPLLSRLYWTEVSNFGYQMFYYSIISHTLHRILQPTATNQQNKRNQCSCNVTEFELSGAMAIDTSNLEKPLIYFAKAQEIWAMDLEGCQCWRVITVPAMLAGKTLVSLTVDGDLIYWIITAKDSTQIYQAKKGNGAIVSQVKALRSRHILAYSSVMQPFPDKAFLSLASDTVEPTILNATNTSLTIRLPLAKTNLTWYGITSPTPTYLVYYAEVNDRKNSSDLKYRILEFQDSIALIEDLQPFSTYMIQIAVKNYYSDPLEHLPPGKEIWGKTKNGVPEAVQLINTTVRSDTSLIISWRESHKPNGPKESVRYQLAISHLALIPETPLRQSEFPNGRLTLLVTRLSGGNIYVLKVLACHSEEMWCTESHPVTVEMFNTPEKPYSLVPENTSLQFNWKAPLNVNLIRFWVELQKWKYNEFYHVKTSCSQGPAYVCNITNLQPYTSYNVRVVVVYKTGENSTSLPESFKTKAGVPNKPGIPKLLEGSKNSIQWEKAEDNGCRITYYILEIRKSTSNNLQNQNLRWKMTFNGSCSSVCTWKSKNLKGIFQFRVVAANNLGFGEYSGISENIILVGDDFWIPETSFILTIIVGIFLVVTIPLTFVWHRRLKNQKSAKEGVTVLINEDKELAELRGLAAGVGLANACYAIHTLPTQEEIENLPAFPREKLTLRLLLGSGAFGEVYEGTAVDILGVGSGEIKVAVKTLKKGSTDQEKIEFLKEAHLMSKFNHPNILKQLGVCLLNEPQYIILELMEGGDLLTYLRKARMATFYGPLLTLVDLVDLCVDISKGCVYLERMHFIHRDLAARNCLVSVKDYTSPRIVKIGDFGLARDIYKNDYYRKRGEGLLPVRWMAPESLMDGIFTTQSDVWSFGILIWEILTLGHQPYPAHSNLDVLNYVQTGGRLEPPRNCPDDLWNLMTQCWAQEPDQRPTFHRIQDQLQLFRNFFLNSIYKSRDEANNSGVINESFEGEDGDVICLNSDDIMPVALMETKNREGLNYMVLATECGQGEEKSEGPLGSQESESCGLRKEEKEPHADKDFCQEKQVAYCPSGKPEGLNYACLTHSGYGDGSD
Method: Compounds were spotted onto white 384-well Proxiplate plus plates (Perkin Elmer) to which 5 μl of enzyme mix (0.5 μg/ml Ros1 enzyme, 50 mM Tris-HCl pH7.5, 1 mM EGTA, 10 mM MgCl2, 0.01% Tween-20) and 5 μl of substrate mix (6 μg/ml IRS-Tide [American Peptide Company], 20 μM ATP, 13.33 μCi/ml ATP (adenosine 5′-triphosphate) P^33, 50 mM Tris-HCl pH7.5, 1 mM EGTA (ethylene glycol-bis(2-aminoethylether)-N,N,N′,N′-tetraacetic acid), 10 mM MgCl2, 0.01% Tween-20) were added. After incubation for 120 minutes at room temperature, 10 μl of stop reaction buffer (5 mM EDTA, 50 μM ATP, 0.1% BSA (bovine serum albumin), 0.1% Triton X-100, 50 mM Tris-HCl pH7.5, 1 mM EGTA, 10 mM MgCl2, 0.01% Tween-20) containing 2 mg/ml streptavidin coupled polystyrene imaging beads (Amersham Biosciences) was added and incubated for 15 minutes at room temperature. Plates were centrifuged for 3 minutes at 1500 rpm and signals detected in a LEADseeker imaging system (GE).

[4] = counter-screen, wild-type, 10 ng/ml murine IL-3

BaF3-ROS1-IL3 pIC50 [2] | melting point [°C] | IC50 (Ros1 enzyme) [nM] | Compound | Ba/F3 Ros1 L2026M (-IL-3) pIC50 [1] | CC50 [3] [nM] | CC50 [3, 4] [nM]
6.4 | 147 | 3160 | CC(C)c1ccc(COc2ccc(-c3c(-c4ccncc4)nn4c3C(=O)N(C(=O)OC(C)(C)C)CC4)cc2)cc1 [Compound 70] | 6.1 |  | > 10000
6.7 | 192 | 398 | CC(C)c1ccc(COc2ccc(-c3c(-c4ccncc4)nn4c3C(=O)N(CC(O)CO)CC4)cc2)c(F)c1F (stereo not shown) [Compound 101] | 6.4 |  | > 10000
6.7 | 191 | 794 | CC(C)c1ccc(COc2ccc(-c3c(-c4ccncc4)nn4c3C(=O)N(CC(O)CO)CC4)cc2)c(F)c1F (stereo not shown) [Compound 102] | 6.4 |  | 
6.9 | 268 | 63.1 | O=C1NCCn2nc(-c3ccncn3)c(-c3ccc(OCc4ccc(C5CC5)cc4)cc3)c21 [Compound 166] |  |  | > 10000
5.2 | 227 | 6310 | CC(C)c1ccc(COc2ccc(-c3c(-c4cc[n+]([O-])cc4)nn4c3C(=O)NCC4)cc2)cc1 [Compound 170] |  |  | > 10000
6.6 | 188 | 200 | CC(C)NC(=O)CN1CCn2nc(-c3ccncc3)c(-c3ccc(OCc4ccc(C(C)C)cc4)cc3)c2C1 [Compound 178] |  |  | > 10000
6.2 | 195 | 1000 | c1cc(-c2nn3c(c2-c2ccc(OCc4ccc(C5CC5)nc4)cc2)CNCC3)ccn1 [Compound 186] |  |  | > 10000
5.8 | 153 | 794 | CC1CNCc2c(-c3ccc(OCc4ccc(C5CC5)cc4)cc3)c(-c3ccncc3)nn21 (stereo not shown) [Compound 197] |  |  | > 10000
6.3 | 197 | 63.1 | CC(C)c1ccc(COc2ccc(-c3c(-c4ccncc4)nn4c3CN(CCN)CC4)cc2)cc1 [Compound 210] |  |  | 6310
7.3 | 57 | 31.6 | CC(C)c1ccc(COc2ccc(-c3c(-c4ccncc4)nn4c3C(=O)N(C)CC4)cn2)cc1 [Compound 211] | 7.3 |  | > 10000
7.0 | 200 | 100 | CC(C)c1ccc(COc2ccc(-c3c(-c4ccncc4)nn4c3C(=O)N(CCS(C)(=O)=O)CC4)cn2)cc1 [Compound 213] | 6.4 |  | > 10000
6.0 | 150 | 1260 | CC(C)c1ccc(COc2ccc(-c3c(-c4ccncn4)nn4c3CNCC4)cc2)cc1 [Compound 219] |  |  | > 10000
<5 | 248 | > 10000 | COc1ncc(COc2ccc(-c3c(-c4ccncc4)nn4c3C(=O)NCC4)cc2)cn1 [Compound 229] |  |  | > 10000
5.2 | 277 | > 10000 | N#Cc1ncc(COc2ccc(-c3c(-c4ccncc4)nn4c3C(=O)NCC4)cc2)cc1Cl [Compound 230] |  |  | > 10000
6.4 | 291 | 794 | CC(C)c1ccc(C2Oc3ccc(-c4c(-c5ccncc5)nn5c4C(=O)NCC5)cc3NC2=O)cc1 (stereo not shown) [Compound 231] | 5.7 |  | > 10000

Compound | BaF3-ROS1-IL3 pIC50 [2] | melting point [°C] | IC50 (Ros1 enzyme) [nM] | Ba/F3 Ros1 L2026M (-IL-3) pIC50 [1] | CC50 [3] [nM] | CC50 [3, 4] [nM]
[2H]C([2H])(O)C([2H])([2H])N1CCn2nc(-c3ccncc3)c(-c3ccc(OCc4ccc(C(C)C)cc4)cc3)c2C1=O [Compound 67] | 7.9 | 179 | 25.1 | 7.1 | > 10000 | 
CC(C)c1ccc(COc2ccc(-c3c(-c4ccncc4)nn4c3C(=O)N(CCO)CC4)cc2)cc1CCO [Compound 83] | 7.6 | 176 | 20 | 7.2 | > 10000 | 
CC(C)c1ccc(COc2ccc(-c3c(-c4ccncc4)nn4c3C(=O)N(CCO)CC4)cc2)c(F)c1F [Compound 100] | 6.9 | 172 | 200 | 6.3 | > 10000 | 
O=C1NCCn2nc(-c3ccncc3)c(-c3ccc(OCc4ccccc4)cc3)c21 [Compound 130] | 5.8 | 260 | 3160 |  | > 10000 | 
COC(=O)c1cccc(COc2ccc(-c3c(-c4ccncc4)nn4c3C(=O)NCC4)cc2)c1 [Compound 131] | 6.2 | 222 | 631 |  | > 10000 | 
N#Cc1ccc(COc2ccc(-c3c(-c4ccncc4)nn4c3C(=O)NCC4)cc2)cc1Cl [Compound 141] | 6.4 | 257 | 631 |  | > 10000 | 
CC(C)c1ccc(C(C)Oc2ccc(-c3c(-c4ccncc4)nn4c3C(=O)NCC4)cc2)cc1 (stereo not shown) [Compound 143] | 6.4 | 217 | 1000 | 6.0 | 5010 | 
COc1ccc(COc2ccc(-c3c(-c4ccncn4)nn4c3C(=O)NCC4)cc2)cc1 [Compound 157] | 6.1 | 264 | 1000 |  | > 10000 | 
O=C1NCCn2nc(-c3ccncn3)c(-c3ccc(OCc4ccc(C5CC5)nc4)cc3)c21 [Compound 168] | 6.5 | 254 | 398 | 6.2 | > 10000 | 
O=C1c2c(-c3ccc(OCc4ccc(C5CC5)nc4)cc3)c(-c3ccncn3)nn2CCN1CCO [Compound 169] | 6.2 | 143 | 1000 | 5.6 | > 10000 | 
CC(C)c1ccc(COc2ccc(-c3c(-c4ccncc4)nn4c3C(=O)N(CCO)CC4)c(F)c2)cc1CCO [Compound 205] | 7.8 | 151 | 7.94 | 7.5 | > 10000 | 
CC(C)c1ccc(COc2ccc(-c3c(-c4ncnc5[nH]ccc45)nn4c3C(=O)NCC4)cc2)cc1 [Compound 222] | 7.0 | 238 | 200 |  | > 10000 | 
CC(C)c1ccc(COc2ccc(-c3c(-c4ccncc4)nn4c3CNC(=O)C4)cc2)cc1 [Compound 237] | 6.8 | 281 | 794 |  | > 10000 | 
